The text below walks through data of patent US9090776B2, “Squarylium dyes” (Exciton, Inc., priority 2012, dated 2015).

The series is described as follows: Solubility of squarylium dye in dichloromethane. The class given is physicochemical. An excerpt:
Subsequent conversion to the squarylium dye can yield desirable photophysical, solubility, thermal stability, and/or light stability properties. For example, as shown in the FIGURE, the ortho-, ortho- isomer of compound IV has a solubility of about 0.2 gm/L in dichloromethane, CH2Cl2. In comparison, the corresponding meta-, meta- and para-, para- isomers of compound have solubilities of about 0.6 gm/L and about 0.5 gm/L in CH2Cl2, respectively.

Each structure is given as a SMILES string.

Regarding `CC1N(Cc2cccc(NC(=O)c3ccccc3)c2)c2cc(NC(=O)c3ccccc3)c(C3=C([O-])/C(=c4/cc5c(cc4NC(=O)c4ccccc4)=[N+](Cc4cccc(NC(=O)c6ccccc6)c4)C(C)C5(C)C)C3=O)cc2C1(C)C` (stereo not drawn) [meta-, meta- isomer of compound IV], the “solubility in dichloromethane, CH2Cl2” value was “about 0.6 gm/L”.
